Results reported in patent US7022667B2, “O-derivatized nocathiacin derivatives” (Bristol-Myers Squibb Company, priority 2002, dated 2006).
Converted amounts (≈) assume the structure as drawn.

Key:
Assay in all cases: MIC, broth micro dilution assay (NCCLS)
Format in all cases: cell-based
[1] = system: Enterococcus faecalis A20688; conditions: Mueller-Hinton medium, 35° C., 18 hours
Experimental: (§1) The serial broth dilution method used Mueller-Hinton medium except for the Streptococcus pneumoniae which was tested in 50% Mueller-Hinton medium and 50% Todd Hewitt medium. The final bacterial inoculate contained approximately 5×10^5 cfu/well and was run on microtiter plates. The volume of each well was 100 μL and the plates were incubated at 35° C. for 18 hours in ambient air. The MIC was defined as the lowest drug concentration that prevented visible growth.

[2] = system: Staphylococcus aureus A15090; conditions: Mueller-Hinton medium, 35° C., 18 hours
Experimental: as §1

[3] = system: Streptococcus pneumoniae A28272; conditions: 50% Mueller-Hinton medium and 50% Todd Hewitt medium, 35° C., 18 hours
Experimental: as §1

C=C(NC(=O)c1csc(-c2nc3c(cc2O)-c2nc(cs2)C(=O)NC(C(C)O)C(=O)NC(=C(C)OC)c2nc(cs2)C(=O)NC2c4nc(cs4)C(=O)NC(COC(=O)c4c5c6c(cccc6n4OCC(N)=O)COC(=O)C(OC4CC(C)(O)C(N(C)C)C(C)O4)C2OC5)c2nc-3cs2)n1)C(N)=O (stereo not drawn) [Example 8]
MIC (μg/mL) Enterococcus faecalis A20688 [1]: 0.25 µg/mL (≈ 0.167 µM) | MIC (μg/mL) Staphylococcus aureus A15090 [2]: 0.5 µg/mL (≈ 0.335 µM) | MIC (μg/mL) Streptococcus pneumoniae A28272 [3]: 0.03 µg/mL (≈ 0.0201 µM)

C=C(NC(=O)c1csc(-c2nc3c(cc2O)-c2nc(cs2)C(=O)NC(C(C)O)C(=O)NC(=C(C)OC)c2nc(cs2)C(=O)NC2c4nc(cs4)C(=O)NC(COC(=O)c4c5c6c(cccc6n4OC(=O)NCCOCCOCCOCCOC)COC(=O)C(OC4CC(C)(O)C(N(C)C)C(C)O4)C2OC5)c2nc-3cs2)n1)C(N)=O (stereo not drawn) [Example 62]
MIC (μg/mL) Enterococcus faecalis A20688 [1]: 0.125 µg/mL (≈ 0.0748 µM) | MIC (μg/mL) Staphylococcus aureus A15090 [2]: 0.125 µg/mL (≈ 0.0748 µM) | MIC (μg/mL) Streptococcus pneumoniae A28272 [3]: 0.015 µg/mL (≈ 0.00898 µM)

C=C(NC(=O)c1csc(-c2nc3c(cc2OCCN2CCOCC2)-c2nc(cs2)C(=O)NC(C(C)O)C(=O)NC(=C(C)OC)c2nc(cs2)C(=O)NC2c4nc(cs4)C(=O)NC(COC(=O)c4c5c6c(cccc6n4OCCN4CCOCC4)COC(=O)C(OC4CC(C)(O)C(N(C)C)C(C)O4)C2OC5)c2nc-3cs2)n1)C(N)=O (stereo not drawn) [Example 26]
MIC (μg/mL) Enterococcus faecalis A20688 [1]: 0.25 µg/mL (≈ 0.15 µM) | MIC (μg/mL) Staphylococcus aureus A15090 [2]: 1.0 µg/mL (≈ 0.601 µM) | MIC (μg/mL) Streptococcus pneumoniae A28272 [3]: 0.03 µg/mL (≈ 0.018 µM)

C=C(NC(=O)c1csc(-c2nc3c(cc2OCOP(=O)(OC(C)(C)C)OC(C)(C)C)-c2nc(cs2)C(=O)NC(C(C)O)C(=O)NC(=C(C)OC)c2nc(cs2)C(=O)NC2c4nc(cs4)C(=O)NC(COC(=O)c4c5c6c(cccc6n4OCOP(=O)(OC(C)(C)C)OC(C)(C)C)COC(=O)C(OC4CC(C)(O)C(N(C)C)C(C)O4)C2OC5)c2nc-3cs2)n1)C(N)=O (stereo not drawn) [Example 73]
MIC (μg/mL) Enterococcus faecalis A20688 [1]: 2.0 µg/mL (≈ 1.06 µM) | MIC (μg/mL) Staphylococcus aureus A15090 [2]: 2.0 µg/mL (≈ 1.06 µM) | MIC (μg/mL) Streptococcus pneumoniae A28272 [3]: 0.25 µg/mL (≈ 0.133 µM)

C=C(NC(=O)c1csc(-c2nc3c(cc2O)-c2nc(cs2)C(=O)NC(C(C)O)C(=O)NC(=C(C)OC)c2nc(cs2)C(=O)NC2c4nc(cs4)C(=O)NC(COC(=O)c4c5c6c(cccc6n4OC(=O)NCCCN4CCN(C)CC4)COC(=O)C(OC4CC(C)(O)C(N(C)C)C(C)O4)C2OC5)c2nc-3cs2)n1)C(N)=O (stereo not drawn) [Example 16]
MIC (μg/mL) Enterococcus faecalis A20688 [1]: 0.003 µg/mL (≈ 0.00185 µM) | MIC (μg/mL) Staphylococcus aureus A15090 [2]: 0.003 µg/mL (≈ 0.00185 µM) | MIC (μg/mL) Streptococcus pneumoniae A28272 [3]: 0.0005 µg/mL (≈ 0.000308 µM)

C=C(NC(=O)c1csc(-c2nc3c(cc2O)-c2nc(cs2)C(=O)NC(C(C)O)C(=O)NC(=C(C)OC)c2nc(cs2)C(=O)NC2c4nc(cs4)C(=O)NC(COC(=O)c4c5c6c(cccc6n4OCCCN)COC(=O)C(OC4CC(C)(O)C(N(C)C)C(C)O4)C2OC5)c2nc-3cs2)n1)C(N)=O (stereo not drawn) [Example 42]
MIC (μg/mL) Enterococcus faecalis A20688 [1]: 1.0 µg/mL (≈ 0.669 µM) | MIC (μg/mL) Staphylococcus aureus A15090 [2]: 0.25 µg/mL (≈ 0.167 µM) | MIC (μg/mL) Streptococcus pneumoniae A28272 [3]: 0.06 µg/mL (≈ 0.0401 µM)

COC(C)=C1NC(=O)C(C(C)O)NC(=O)c2csc(n2)-c2cc(OC)c(-c3nc(C(N)=O)cs3)nc2-c2csc(n2)C2COC(=O)c3c4c5c(cccc5n3OC)COC(=O)C(OC3CC(C)(O)C(N(C)C)C(C)O3)C(OC4)C(NC(=O)c3csc1n3)c1nc(cs1)C(=O)N2 (stereo not drawn) [Example 83]
MIC (μg/mL) Enterococcus faecalis A20688 [1]: 0.06 µg/mL (≈ 0.043 µM) | MIC (μg/mL) Staphylococcus aureus A15090 [2]: 0.03 µg/mL (≈ 0.0215 µM) | MIC (μg/mL) Streptococcus pneumoniae A28272 [3]: 0.03 µg/mL (≈ 0.0215 µM)

C=C(NC(=O)c1csc(-c2nc3c(cc2O)-c2nc(cs2)C(=O)NC(C(C)O)C(=O)NC(=C(C)OC)c2nc(cs2)C(=O)NC2c4nc(cs4)C(=O)NC(COC(=O)c4c5c6c(cccc6n4OCCCN4CCN(C)CC4)COC(=O)C(OC4CC(C)(O)C(N(C)C)C(C)O4)C2OC5)c2nc-3cs2)n1)C(N)=O (stereo not drawn) [Example 50]
MIC (μg/mL) Enterococcus faecalis A20688 [1]: 1.0 µg/mL (≈ 0.634 µM) | MIC (μg/mL) Staphylococcus aureus A15090 [2]: 1.0 µg/mL (≈ 0.634 µM) | MIC (μg/mL) Streptococcus pneumoniae A28272 [3]: 0.03 µg/mL (≈ 0.019 µM)

C=C(NC(=O)c1csc(-c2nc3c(cc2OCCO)-c2nc(cs2)C(=O)NC(C(C)O)C(=O)NC(=C(C)OC)c2nc(cs2)C(=O)NC2c4nc(cs4)C(=O)NC(COC(=O)c4c5c6c(cccc6n4OCCO)COC(=O)C(OC4CC(C)(O)C(N(C)C)C(C)O4)C2OC5)c2nc-3cs2)n1)C(N)=O (stereo not drawn) [Example 77]
MIC (μg/mL) Enterococcus faecalis A20688 [1]: 1.0 µg/mL (≈ 0.655 µM) | MIC (μg/mL) Staphylococcus aureus A15090 [2]: 0.5 µg/mL (≈ 0.328 µM) | MIC (μg/mL) Streptococcus pneumoniae A28272 [3]: 0.03 µg/mL (≈ 0.0197 µM)

C=C(NC(=O)c1csc(-c2nc3c(cc2O)-c2nc(cs2)C(=O)NC(C(C)O)C(=O)NC(=C(C)OC)c2nc(cs2)C(=O)NC2c4nc(cs4)C(=O)NC(COC(=O)c4c5c6c(cccc6n4OC(=O)NCCCC)COC(=O)C(OC4CC(C)(O)C(N(C)C)C(C)O4)C2OC5)c2nc-3cs2)n1)C(N)=O (stereo not drawn) [Example 15]
MIC (μg/mL) Enterococcus faecalis A20688 [1]: 0.03 µg/mL (≈ 0.0195 µM) | MIC (μg/mL) Staphylococcus aureus A15090 [2]: ≦0.001 μg/mL | MIC (μg/mL) Streptococcus pneumoniae A28272 [3]: 0.007 µg/mL (≈ 0.00456 µM)

C=C(NC(=O)c1csc(-c2nc3c(cc2O)-c2nc(cs2)C(=O)NC(C(C)O)C(=O)NC(=C(C)OC)c2nc(cs2)C(=O)NC2c4nc(cs4)C(=O)NC(COC(=O)c4c5c6c(cccc6n4OCOP(=O)(O)O)COC(=O)C(OC4CC(C)(O)C(N(C)C)C(C)O4)C2OC5)c2nc-3cs2)n1)C(N)=O (stereo not drawn) [Example 12]
MIC (μg/mL) Enterococcus faecalis A20688 [1]: 1.0 µg/mL (≈ 0.646 µM) | MIC (μg/mL) Staphylococcus aureus A15090 [2]: 0.25 µg/mL (≈ 0.162 µM) | MIC (μg/mL) Streptococcus pneumoniae A28272 [3]: 0.015 µg/mL (≈ 0.00969 µM)

C=C(NC(=O)c1csc(-c2nc3c(cc2OS(=O)(=O)c2cn(C)cn2)-c2nc(cs2)C(=O)NC(C(C)O)C(=O)NC(=C(C)OC)c2nc(cs2)C(=O)NC2c4nc(cs4)C(=O)NC(COC(=O)c4c5c6c(cccc6n4OCCCNS(=O)(=O)c4cn(C)cn4)COC(=O)C(OC4CC(C)(O)C(N(C)C)C(C)O4)C2OC5)c2nc-3cs2)n1)C(N)=O (stereo not drawn) [Example 87]
MIC (μg/mL) Enterococcus faecalis A20688 [1]: 2.0 µg/mL (≈ 1.12 µM) | MIC (μg/mL) Staphylococcus aureus A15090 [2]: 1.0 µg/mL (≈ 0.561 µM) | MIC (μg/mL) Streptococcus pneumoniae A28272 [3]: 0.06 µg/mL (≈ 0.0337 µM)

C=C(NC(=O)c1csc(-c2nc3c(cc2O)-c2nc(cs2)C(=O)NC(C(C)O)C(=O)NC(=C(C)OC)c2nc(cs2)C(=O)NC2c4nc(cs4)C(=O)NC(COC(=O)c4c5c6c(cccc6n4OC)COC(=O)C(OC4CC(C)(O)C(N(C)C)C(C)O4)C2OC5)c2nc-3cs2)n1)C(N)=O (stereo not drawn) [Example 6]
MIC (μg/mL) Enterococcus faecalis A20688 [1]: 0.125 µg/mL (≈ 0.0861 µM) | MIC (μg/mL) Staphylococcus aureus A15090 [2]: 0.03 µg/mL (≈ 0.0207 µM) | MIC (μg/mL) Streptococcus pneumoniae A28272 [3]: 0.003 µg/mL (≈ 0.00207 µM)

C=C(NC(=O)c1csc(-c2nc3c(cc2OCOP(=O)([O-])OC(C)(C)C)-c2nc(cs2)C(=O)NC(C(C)O)C(=O)NC(=C(C)OC)c2nc(cs2)C(=O)NC2c4nc(cs4)C(=O)NC(COC(=O)c4c5c6c(cccc6n4OCOP(=O)([O-])OC(C)(C)C)COC(=O)C(OC4CC(C)(O)C(N(C)C)C(C)O4)C2OC5)c2nc-3cs2)n1)C(N)=O.[Na+].[Na+] (stereo not drawn) [Example 81]
MIC (μg/mL) Enterococcus faecalis A20688 [1]: >128 µg/mL | MIC (μg/mL) Staphylococcus aureus A15090 [2]: 128 µg/mL | MIC (μg/mL) Streptococcus pneumoniae A28272 [3]: 8 µg/mL

C=C(NC(=O)c1csc(-c2nc3c(cc2O)-c2nc(cs2)C(=O)NC(C(C)O)C(=O)NC(=C(C)OC)c2nc(cs2)C(=O)NC2c4nc(cs4)C(=O)NC(COC(=O)c4c5c6c(cccc6n4OCCC(=O)[O-])COC(=O)C(OC4CC(C)(O)C(N(C)C)C(C)O4)C2OC5)c2nc-3cs2)n1)C(N)=O.[Na+] (stereo not drawn) [Example 44]
MIC (μg/mL) Enterococcus faecalis A20688 [1]: 0.25 µg/mL | MIC (μg/mL) Staphylococcus aureus A15090 [2]: 0.125 µg/mL | MIC (μg/mL) Streptococcus pneumoniae A28272 [3]: 0.03 µg/mL
